From US10752612B2, “PLK4 inhibitors” (LUDWIG INSTITUTE FOR CANCER RESEARCH LTD, priority 2015, dated 2020)
Where “and” joins values, the source holds several entries; their conditions need not be identical. Equal values may be shown once.

Key:
[1] = target: T1, human Plk4 kinase domain (aa 2-275) (Homo sapiens, UniProt O00444); assay: Plk4 kinase assay (ADP-Glo); type: biochemical
T1 construct: purified 6×His-tagged human Plk4 kinase domain (aa 2-275); 6xHis; made in house; host or cells: E. coli
T1 sequence (O00444 2-275): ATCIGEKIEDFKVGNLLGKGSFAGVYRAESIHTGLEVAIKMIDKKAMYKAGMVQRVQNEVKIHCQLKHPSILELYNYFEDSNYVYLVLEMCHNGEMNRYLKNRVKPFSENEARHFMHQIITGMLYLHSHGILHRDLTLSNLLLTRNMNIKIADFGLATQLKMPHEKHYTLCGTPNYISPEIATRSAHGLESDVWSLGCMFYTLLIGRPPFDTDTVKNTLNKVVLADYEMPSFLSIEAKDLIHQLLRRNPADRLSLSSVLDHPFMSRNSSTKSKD
Method in brief: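 Enzyme at 2.5-10 nM final, pH 8.0, reacted 4-16 hours at 25° C; ADP generation read by ADP-Glo luminescence. Ki derived from IC50 by Cheng-Prusoff or, for tight binders, Copeland formalism.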

[2] = target: T2, inhibitor-resistant mutant Plk4 (G95L) (Homo sapiens, UniProt O00444, G95L); assay: Plk4 (G95L) mutant kinase assay; type: biochemical
T2 construct: Plk4 assays used equal volumes of: (1) purified 6×His-tagged human Plk4 kinase domain (aa 2-275); 6xHis; made in house; host or cells: E. coli
T2 sequence (O00444 2-275 G95L): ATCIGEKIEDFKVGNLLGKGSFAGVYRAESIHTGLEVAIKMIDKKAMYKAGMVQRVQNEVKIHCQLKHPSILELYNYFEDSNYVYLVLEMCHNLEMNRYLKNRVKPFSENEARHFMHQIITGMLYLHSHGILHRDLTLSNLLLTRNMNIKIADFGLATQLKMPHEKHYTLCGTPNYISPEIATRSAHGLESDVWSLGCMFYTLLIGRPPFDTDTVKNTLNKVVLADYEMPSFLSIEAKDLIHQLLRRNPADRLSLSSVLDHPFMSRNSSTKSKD
Description: Kinase assays. […] Reactions were allowed to proceed for 4-16 hours at 25° C. Detection was performed using ADP-Glo reagent (Promega), following manufacturer's instructions. Luminescence was measured on an Infinite M1000 plate reader (Tecan). Data were fit using Prism (GraphPad) and Kis were calculated from IC50 data using the Cheng and Prusoff equation (37) or the Copeland formalism for tight-binding inhibitors (38).

[3] = target: T3, human Aurora A (Homo sapiens, UniProt O14965); assay: Aurora A kinase assay (ADP-Glo); type: biochemical
T3 construct: purchased Millipore
T3 sequence (O14965 1-403): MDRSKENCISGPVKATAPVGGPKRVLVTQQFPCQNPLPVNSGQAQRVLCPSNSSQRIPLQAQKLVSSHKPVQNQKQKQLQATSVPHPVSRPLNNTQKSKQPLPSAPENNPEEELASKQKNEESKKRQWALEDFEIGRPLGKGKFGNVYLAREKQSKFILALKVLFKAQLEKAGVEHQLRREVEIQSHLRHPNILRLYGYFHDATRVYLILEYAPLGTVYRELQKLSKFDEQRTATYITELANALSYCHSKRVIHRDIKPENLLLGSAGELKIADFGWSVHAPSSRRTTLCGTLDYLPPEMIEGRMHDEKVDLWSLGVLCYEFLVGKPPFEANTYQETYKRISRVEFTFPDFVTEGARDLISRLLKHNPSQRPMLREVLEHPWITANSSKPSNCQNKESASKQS
Description: LRRASLG)+inhibitors arrayed in dose response (added as described above). […] Detection, measurement and data analysis were performed as described above.

[4] = target: T4, Aurora B (Homo sapiens, UniProt Q96GD4); assay: Aurora B radiometric kinase assay (Reaction Biology); type: biochemical
T4 construct: Reaction Biology (Malvern, Pa.), contract assay
T4 sequence (Q96GD4 whole entry): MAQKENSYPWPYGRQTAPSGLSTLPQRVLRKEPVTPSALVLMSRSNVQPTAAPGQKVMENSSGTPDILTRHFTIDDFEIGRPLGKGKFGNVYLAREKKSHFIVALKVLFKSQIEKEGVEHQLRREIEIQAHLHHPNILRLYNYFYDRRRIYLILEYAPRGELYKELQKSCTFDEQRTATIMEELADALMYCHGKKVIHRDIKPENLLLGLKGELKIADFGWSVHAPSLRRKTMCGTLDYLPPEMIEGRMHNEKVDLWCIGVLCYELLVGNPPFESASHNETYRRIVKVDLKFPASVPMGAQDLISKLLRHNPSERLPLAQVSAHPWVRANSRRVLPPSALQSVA
Description: Aurora B and other radiometric kinase assays were performed by Reaction Biology (Malvern, Pa.).

[5] = target: T5, TNK1 (Homo sapiens, UniProt Q13470); assay: Radiometric kinase assay, off-target TNK1; type: biochemical
T5 construct: Reaction Biology (Malvern, Pa.), contract assay
T5 sequence (Q13470 1-666): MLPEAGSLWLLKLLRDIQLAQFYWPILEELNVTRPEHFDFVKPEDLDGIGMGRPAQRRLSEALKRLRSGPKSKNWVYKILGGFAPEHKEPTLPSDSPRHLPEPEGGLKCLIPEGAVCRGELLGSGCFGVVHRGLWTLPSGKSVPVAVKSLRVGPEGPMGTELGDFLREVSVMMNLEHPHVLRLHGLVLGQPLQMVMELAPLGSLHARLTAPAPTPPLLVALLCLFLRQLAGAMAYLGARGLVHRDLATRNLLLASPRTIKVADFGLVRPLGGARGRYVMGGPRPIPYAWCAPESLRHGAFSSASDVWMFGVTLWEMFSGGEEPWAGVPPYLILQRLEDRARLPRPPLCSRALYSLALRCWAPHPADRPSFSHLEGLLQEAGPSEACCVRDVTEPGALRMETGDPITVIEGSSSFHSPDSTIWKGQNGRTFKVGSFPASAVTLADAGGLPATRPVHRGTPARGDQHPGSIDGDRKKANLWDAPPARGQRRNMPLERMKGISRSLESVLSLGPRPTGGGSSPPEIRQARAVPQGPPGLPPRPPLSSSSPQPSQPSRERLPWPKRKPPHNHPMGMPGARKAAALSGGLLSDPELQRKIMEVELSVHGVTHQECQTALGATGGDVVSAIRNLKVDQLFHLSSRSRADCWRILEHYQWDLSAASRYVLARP
Description: (§1) Aurora B and other radiometric kinase assays were performed by Reaction Biology (Malvern, Pa.). Kinome profiling of centrinone and centrinone-B was performed by DiscoveRx (San Diego, Calif.).

[6] = target: T6, LRRK2 (Homo sapiens, UniProt Q5S007); assay: Radiometric kinase assay, off-target LRRK2; type: biochemical
T6 construct: Reaction Biology (Malvern, Pa.), contract assay
Description: as §1

[7] = target: ROS/ROS1 (Homo sapiens, UniProt P08922); assay: Radiometric kinase assay, off-target ROS/ROS1; type: biochemical
Chain of ROS/ROS1 (P08922 28-2347): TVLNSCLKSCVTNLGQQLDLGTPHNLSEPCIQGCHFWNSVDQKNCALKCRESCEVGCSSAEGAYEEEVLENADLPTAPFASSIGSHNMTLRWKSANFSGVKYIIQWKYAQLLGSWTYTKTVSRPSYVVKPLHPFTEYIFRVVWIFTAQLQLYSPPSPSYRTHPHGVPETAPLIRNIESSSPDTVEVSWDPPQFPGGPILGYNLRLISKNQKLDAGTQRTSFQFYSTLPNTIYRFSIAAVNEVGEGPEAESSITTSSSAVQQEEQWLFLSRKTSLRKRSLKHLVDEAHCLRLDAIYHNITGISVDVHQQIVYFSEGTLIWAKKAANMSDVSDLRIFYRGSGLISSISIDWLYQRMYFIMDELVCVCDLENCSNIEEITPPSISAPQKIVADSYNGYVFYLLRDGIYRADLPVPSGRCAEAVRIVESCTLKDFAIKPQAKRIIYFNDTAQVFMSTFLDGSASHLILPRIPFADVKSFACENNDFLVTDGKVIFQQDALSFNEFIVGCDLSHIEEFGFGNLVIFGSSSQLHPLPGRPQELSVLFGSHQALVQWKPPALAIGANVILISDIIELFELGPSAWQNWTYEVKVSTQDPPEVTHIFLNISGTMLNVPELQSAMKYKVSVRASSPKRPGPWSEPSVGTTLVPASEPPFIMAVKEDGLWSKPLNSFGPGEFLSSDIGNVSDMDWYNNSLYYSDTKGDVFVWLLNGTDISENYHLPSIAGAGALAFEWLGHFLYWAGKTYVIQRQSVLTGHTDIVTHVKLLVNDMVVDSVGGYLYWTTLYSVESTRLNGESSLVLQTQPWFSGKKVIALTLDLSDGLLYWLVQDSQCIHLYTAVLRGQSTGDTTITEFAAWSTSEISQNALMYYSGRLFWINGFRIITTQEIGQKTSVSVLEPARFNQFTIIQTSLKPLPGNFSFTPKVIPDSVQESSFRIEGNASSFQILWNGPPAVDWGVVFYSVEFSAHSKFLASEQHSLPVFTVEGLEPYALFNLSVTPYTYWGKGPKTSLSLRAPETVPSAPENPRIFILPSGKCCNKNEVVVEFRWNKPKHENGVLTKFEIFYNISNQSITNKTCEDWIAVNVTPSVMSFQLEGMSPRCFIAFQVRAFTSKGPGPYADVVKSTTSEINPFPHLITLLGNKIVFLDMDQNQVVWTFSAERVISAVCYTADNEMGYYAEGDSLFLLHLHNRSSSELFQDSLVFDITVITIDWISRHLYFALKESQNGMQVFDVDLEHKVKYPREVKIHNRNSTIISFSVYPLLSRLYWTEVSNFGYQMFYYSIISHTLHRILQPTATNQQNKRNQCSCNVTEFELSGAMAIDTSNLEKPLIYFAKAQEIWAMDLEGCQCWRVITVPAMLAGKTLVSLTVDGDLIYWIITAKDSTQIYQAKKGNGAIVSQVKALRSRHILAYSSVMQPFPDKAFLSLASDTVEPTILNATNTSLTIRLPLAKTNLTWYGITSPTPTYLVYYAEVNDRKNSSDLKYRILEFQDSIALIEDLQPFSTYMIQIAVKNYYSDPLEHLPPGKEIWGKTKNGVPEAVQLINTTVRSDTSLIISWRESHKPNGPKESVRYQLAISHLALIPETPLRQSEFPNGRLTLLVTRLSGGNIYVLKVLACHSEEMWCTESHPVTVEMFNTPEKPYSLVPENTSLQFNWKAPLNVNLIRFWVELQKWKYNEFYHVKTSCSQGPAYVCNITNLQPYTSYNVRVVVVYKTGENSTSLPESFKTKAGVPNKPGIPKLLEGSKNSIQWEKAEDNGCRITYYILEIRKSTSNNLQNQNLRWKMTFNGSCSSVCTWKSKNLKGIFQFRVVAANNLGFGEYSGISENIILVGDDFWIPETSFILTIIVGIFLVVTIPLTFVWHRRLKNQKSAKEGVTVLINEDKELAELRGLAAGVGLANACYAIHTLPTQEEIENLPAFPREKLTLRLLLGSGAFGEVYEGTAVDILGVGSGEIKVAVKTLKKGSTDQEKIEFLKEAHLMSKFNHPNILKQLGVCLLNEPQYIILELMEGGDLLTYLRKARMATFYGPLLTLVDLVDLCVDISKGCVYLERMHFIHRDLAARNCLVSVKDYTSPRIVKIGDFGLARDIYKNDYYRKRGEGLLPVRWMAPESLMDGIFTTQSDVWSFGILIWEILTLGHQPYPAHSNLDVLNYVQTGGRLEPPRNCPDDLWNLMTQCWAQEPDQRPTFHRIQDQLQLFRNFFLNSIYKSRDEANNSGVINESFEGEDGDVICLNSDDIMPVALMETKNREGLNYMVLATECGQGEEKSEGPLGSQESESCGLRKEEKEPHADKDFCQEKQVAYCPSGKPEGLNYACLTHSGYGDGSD
Description: as §1

[8] = target: FLT4/VEGFR3 (Homo sapiens, UniProt P35916); assay: Radiometric kinase assay, off-target FLT4/VEGFR3; type: biochemical
Description: as §1

[9] = target: T7, RET (Homo sapiens, UniProt P07949); assay: Radiometric kinase assay, off-target RET; type: biochemical
T7 construct: Reaction Biology (Malvern, Pa.), contract assay
T7 sequence (P07949 29-1114): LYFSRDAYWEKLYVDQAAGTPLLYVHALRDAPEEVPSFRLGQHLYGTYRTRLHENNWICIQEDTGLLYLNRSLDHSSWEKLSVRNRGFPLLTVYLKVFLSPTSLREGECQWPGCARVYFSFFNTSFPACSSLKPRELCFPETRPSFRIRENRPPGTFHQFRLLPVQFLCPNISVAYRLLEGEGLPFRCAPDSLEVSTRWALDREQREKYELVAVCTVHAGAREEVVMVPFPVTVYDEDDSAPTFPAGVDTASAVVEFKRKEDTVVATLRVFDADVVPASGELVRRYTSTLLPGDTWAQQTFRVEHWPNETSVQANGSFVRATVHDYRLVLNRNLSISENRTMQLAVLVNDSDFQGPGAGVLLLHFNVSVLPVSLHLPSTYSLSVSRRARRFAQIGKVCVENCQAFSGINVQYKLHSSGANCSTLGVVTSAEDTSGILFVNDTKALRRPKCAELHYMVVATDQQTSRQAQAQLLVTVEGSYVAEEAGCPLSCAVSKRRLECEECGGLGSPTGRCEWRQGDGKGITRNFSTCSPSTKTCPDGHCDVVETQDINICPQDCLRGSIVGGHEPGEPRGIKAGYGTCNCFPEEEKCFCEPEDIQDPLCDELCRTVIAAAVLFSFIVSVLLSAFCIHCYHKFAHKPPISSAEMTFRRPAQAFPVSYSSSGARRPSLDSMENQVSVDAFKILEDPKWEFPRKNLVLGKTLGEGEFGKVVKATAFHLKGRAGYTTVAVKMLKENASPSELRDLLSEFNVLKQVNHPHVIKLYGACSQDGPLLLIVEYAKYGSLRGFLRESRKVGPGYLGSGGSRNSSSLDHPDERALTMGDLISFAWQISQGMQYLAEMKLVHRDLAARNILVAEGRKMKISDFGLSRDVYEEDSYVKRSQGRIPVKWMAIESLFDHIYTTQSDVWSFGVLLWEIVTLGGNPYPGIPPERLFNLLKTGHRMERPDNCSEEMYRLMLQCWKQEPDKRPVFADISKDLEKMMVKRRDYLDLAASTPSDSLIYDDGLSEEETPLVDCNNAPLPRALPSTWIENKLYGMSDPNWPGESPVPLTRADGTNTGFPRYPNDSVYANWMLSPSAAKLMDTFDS
Description: as §1

[10] = target: T8, JAK2 (Homo sapiens, UniProt O60674); assay: Radiometric kinase assay, off-target JAK2; type: biochemical
T8 construct: Reaction Biology (Malvern, Pa.), contract assay
Description: as §1

[11] = target: T9, SRPK1 (Homo sapiens, UniProt Q96SB4); assay: Radiometric kinase assay, off-target SRPK1; type: biochemical
T9 construct: Reaction Biology (Malvern, Pa.), contract assay
T9 sequence (Q96SB4 whole entry): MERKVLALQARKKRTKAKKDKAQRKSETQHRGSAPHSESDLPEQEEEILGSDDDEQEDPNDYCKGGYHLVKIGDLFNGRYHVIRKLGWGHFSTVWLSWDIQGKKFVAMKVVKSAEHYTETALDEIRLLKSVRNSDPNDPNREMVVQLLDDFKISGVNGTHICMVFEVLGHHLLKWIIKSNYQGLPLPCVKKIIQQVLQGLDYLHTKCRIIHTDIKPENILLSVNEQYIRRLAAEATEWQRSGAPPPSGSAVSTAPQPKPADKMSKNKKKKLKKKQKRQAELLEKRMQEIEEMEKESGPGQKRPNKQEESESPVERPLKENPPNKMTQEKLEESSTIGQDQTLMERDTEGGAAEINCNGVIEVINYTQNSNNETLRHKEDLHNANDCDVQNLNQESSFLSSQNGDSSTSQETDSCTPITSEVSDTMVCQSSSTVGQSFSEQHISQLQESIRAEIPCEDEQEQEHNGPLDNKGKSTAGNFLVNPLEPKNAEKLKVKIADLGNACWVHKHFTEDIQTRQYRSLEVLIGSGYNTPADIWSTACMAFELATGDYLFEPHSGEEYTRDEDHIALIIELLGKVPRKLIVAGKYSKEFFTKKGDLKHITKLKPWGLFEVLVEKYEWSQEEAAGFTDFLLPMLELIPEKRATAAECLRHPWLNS
Description: as §1

[12] = tested on: centrosomes in cells; assay: Cellular centrosome depletion (cell line not stated); type: cell-based; conditions: cellular activity, FIG. 1A
Description: Centriole depletion assay for compound screening. 1,500 NIH/3T3 cells or 3,500 HCT116 cells were seeded into 96-well SCREENSTAR microplates (Greiner) and treated with inhibitors in dose response, added from DMSO stocks. After 3 days, cells were fixed directly in the wells with 100% methanol (−20° C., 10 minutes). The fixed cells were washed with PBS and stained with primary antibodies against γ-tubulin and, for a subset of compounds, Cep192. Cells were then stained with Alexa-488 donkey anti-mouse and Alexa-647 goat anti-rabbit secondary antibodies. Cells were imaged using either a Model 500 LumaScope (Etaluma) or an EVOS FL (Advanced Microscopy Group/Life Technologies), and centriole depletion was determined by scoring the percentage of cells without visible γ-tubulin/Cep192 foci.

[13] = tested on: RPE1 cells; assay: Passaging assay and flow cytometry, RPE1; type: cell-based, human; conditions: RPE1, addition Day 0, washout Day 8
Description: Passaging assays. Cells were seeded into 10 cm tissue culture plates at 150,000 (HeLa, NIH/3T3 and RPE1) or 200,000 cells/plate (primary fibroblasts). Compounds were added at the indicated concentrations. At 4-day intervals, cells were harvested, counted using a TC10 cell counter, and re-seeded into new plates at the densities above. Results are from 2 independent experiments.
Flow cytometry. Cells were seeded into 15 cm tissue culture plates such that each plate was 50-80% confluent at the time of harvesting. Cells were de-adhered by trypsinization and pelleted in 15 ml tubes by centrifugation. Each pellet was resuspended in 0.3 mL PBS, and 0.7 mL ice-cold 100% ethanol was added to the tube while gently vortexing. Fixed cells were stored at 4° C. for up to 2 weeks. For DNA content analysis, fixed cells were pelleted, washed twice with PBS, and resuspended in 0.5 mL PBS+2% BSA and Alexa488-conjugated anti-p-H3(Ser10) antibody. Samples were incubated for 1 hour at 4° C., then washed twice with PBS+2% BSA. Pellets were resuspended in 1 mL PBS+2% BSA, 10 μg/ml propidium iodide (Sigma-Aldrich), 500 µg/ml RNAse A (Thermo Scientific). Samples were incubated at 37° C. for 30 minutes, then transferred to 12×75 mm tubes for analysis. Data were acquired using FACSDiva software on a LSR II flow cytometer (BD Biosciences). 50,000 cells were analyzed per condition. Cell cycle fitting was performed using ModFit LT (Verity Software House).

[14] = tested on: p53; assay: Western blotting, RPE1; type: cell-based, human
Description: Western blotting. […] Cell extracts were stored at −80° C. until use.
For p53, p-p53(S33), p-p53(S392), p-p38(T180/Y182), acetyl-p53(K382), LATS2, YAP, MDM2, MAPKAPK-2 and GFP, blocking and antibody incubations were performed in TBS-T+5% non-fat dry milk. For p-YAP(S127), p-p53(S9), p-p53(S15), p-p53(S20), p-p53(S37), p-p53(S315), p21 and p-MAPKAPK-2(T334), blocking and antibody incubations were performed in TBS-T+5% BSA. Detection was performed using HRP-conjugated secondary antibodies (GE Healthcare) with WesternBright Sirius (Advansta) or SuperSignal West Femto (Thermo Scientific) substrates. Membranes were imaged on a ChemiDoc MP system (Bio-Rad). Membranes were stripped and reprobed with antibodies against α-tubulin or GAPDH as loading controls.

[15] = tested on: p38; conditions: RPE1, osmotic stress
Description: MAPKAPK-2 activation assay. RPE1 cells on 10 cm plates were treated with DMSO or 10 μM SB203580 for 2 hours prior to induction of stress.
Western blotting. Asynchronously growing cells from 10 cm plates were harvested at 50-80% confluence and lysed by sonication in RIPA buffer+protease and phosphatase inhibitor cocktail (Thermo Scientific). Cell extracts were stored at −80° C. until use. Before use, concentrations of extracts were normalized using a Bio-Rad Protein Assay (Bio-Rad). For every sample, 25-50 μg protein/lane was run on Mini-PROTEAN gels (Bio-Rad), and transferred to PVDF membranes using a TransBlot Turbo system (Bio-Rad).

[16] = off-target from DiscoveRx kinome profiling

COc1c(Nc2cc(C)[nH]n2)nc(Sc2ccc(S(=O)(=O)Cc3cccc([N+](=O)[O-])c3F)cc2F)nc1N1CCCCC1 [Centrinone-B, 2-((2-fluoro-4-((2-fluoro-3-nitrobenzyl)sulfonyl)phenyl)thio)-5-methoxy-N-(5-methyl-1H-pyrazol-3-yl)-6-(piperidin-1-yl)pyrimidin-4-amine]
Ki [1]: 0.0006 µM and 0.00059 µM
Ki [2]: 0.498 µM
Plk4 selectivity, Ki(Plk4 G95L)/Ki(Plk4) [2]: 847
Ki [3]: 1.24 µM
Plk4 selectivity, Ki(Aurora A)/Ki(Plk4) [3]: 2108
Ki [4]: 5.6 µM
Plk4 selectivity, Ki(Aurora B)/Ki(Plk4) [4]: 9523
Plk4 selectivity, Ki(TNK1)/Ki(Plk4) [5]: 10
Ki [5, 16]: 0.00604 µM
Plk4 selectivity, Ki(LRRK2)/Ki(Plk4) [6]: 13
Ki [6, 16]: 0.00766 µM
Plk4 selectivity, Ki(ROS/ROS1)/Ki(Plk4) [7]: 153
Ki [7, 16]: 0.0901 µM
Plk4 selectivity, Ki(FLT4/VEGFR3)/Ki(Plk4) [8]: 99
Ki [8, 16]: 0.058 µM
Plk4 selectivity, Ki(RET)/Ki(Plk4) [9]: 332
Ki [9, 16]: 0.195 µM
Plk4 selectivity, Ki(JAK2)/Ki(Plk4) [10]: >847
Ki [10, 16]: > 0.5 µM
Plk4 selectivity, Ki(SRPK1)/Ki(Plk4) [11]: >847
Ki [11, 16]: > 0.5 µM
centrosome depletion at [12]: 500 nM

CCOc1cc(C(C)(C)C)ccc1C1=N[C@@](C)(c2ccc(Cl)cc2)[C@@](C)(c2ccc(Cl)cc2)N1C(=O)N1CCN(CCCS(C)(=O)=O)CC1 [R7112]
proliferation after washout [13]: led to resumption of proliferation
p53 levels [14]: raised p53 levels

C[S+]([O-])c1ccc(-c2nc(-c3ccncc3)c(-c3ccc(F)cc3)[nH]2)cc1 (stereo not shown) [SB203580]
phosphorylation of MAPKAPK-2 by p38 [15]: blocks phosphorylation of MAPKAPK-2
